# Results as given in patent publication US9629362B1, “Methods for killing insects using methyl benzoate” (The United States of America, as represented by the …, priority 2016, dated 2017).
# Entries after “also recorded” stand apart in the source; their conditions may differ. Like-named read-outs stand apart in the source and are kept apart here. Marks after values point to notes of the source that are not given here.
# Legend:
# [1] = by ingestion and inhalation; cited from earlier work
# D. suzukii = assay: Oviposition deterrent / adult toxicity of MB and other VOCs on pre-treated blueberries; assay type: in vivo, Drosophila suzukii; settings: for Activity against adult D. suzukii: 2 days exposure to pre-treated blueberries; for Toxicity / mortality against adult D. suzukii: blueberries soaked 2 h, 48 h (2 days) exposure; for Adults emerged from pre-treated berries / Pupae developed from pre-treated berries compared with blank control: further 10 days incubation at room temperature
# Protocol: Mortality assessed after 48 hrs exposure to pre-treated blueberries (60 berries/treatment, 1% solution soaking for 2 hr) as described below.
# Numbers assessed after 10 days incubation at room temperature as described below.
# Mortality assessed after 48 hrs exposure to pre-treated blueberries (60 berries/treatment, soaking for 2 hr) as described below.
# Numbers assessed after 10 days incubation at room temperature.
# (§1) Laboratory bioassay: Bioassays were conducted in USDA Beltsville laboratory at 25° C., 60% RH, under a 16L:8D photoperiod with ˜1700 lux light illuminance. A fume hood was maintained at same conditions with face velocity at 129 FPM. The plastic cups (32 oz, diameter 4.5 inches, deep 5 inches, or 16 oz, diameter 4.5 inches, deep 2.5 inches) were purchased from papermart.com (CA). The cover was cut into a 80 mm diameter hole and glued with an 85 mm diameter Nylon screen mesh (81×81 per inch) mesh size, BioQuip, CA). The polystyrene vials (height 95 mm, diameter 28.5 mm) and plugs were obtained from Fisher Scientific (Pittsburg, Pa.). The plastic cage (30×30×30 cm) was purchased from BugDorm (Rancho Dominguez, Calif.). Glass vial (20 mL), glass spray bottle (Amber glass with spray top, 30 mL), Petri dish (9 cm diameter), and Whatman filter paper (90 mm diameter) were obtained from VWR (Atlanta, Ga.). Deionized water (DI) containing 1% emulsifier (v/v), Tween 20 and Tween 80, at 1.1 ratio was used to make different VOCs water solutions and also used as blank control.
# Evaluation of MB and other VOCs as oviposition deterrent against D. suzukii: To examine the oviposition deterrent property of MB and other essential oils against D. suzukii, 10 blueberries were separately dipped in 100 mL MB or other essential oil aqueous emulsions at 1% concentration for 2 h. Another 10 blueberries were dipped in 100 mL DI water for 2 h as control. The blueberries were separately placed on different Petri dishes and allowed to air dry for 2 h. After a Petri dish containing 10 treated blueberries was put into a plastic cup (32 oz), 10 mixed sex adults D. suzukii were subsequently introduced into each cup. Mortality of the D. suzukii was examined after 48 h. After removing all insects, the blueberries were maintained at room temperature for another 10 days. Present of adults were subsequently assessed and development of larvae and pupae was further inspected by dissection of the berries.
# P. xylostella eggs = assay type: in vivo
# Protocol: (§2) Ovicidal toxicity of MB and commercial pesticides: The aqueous solutions of MB with designated concentrations and commercially available pesticides with different concentrations of active ingredient (AI) were separately stored in glass spray bottles. The eggs (10 for H. halys and M. sexta, 100 for P. xylostella) were laid on filter papers in Petri dishes. Different aqueous solutions were sprayed on the surfaces of different eggs three times (˜0.5 mL) to completely cover the treatment areas. Then Petri dishes were covered with lids and maintained in a fume hood for 10 days. The Petri dishes were then inspected for presence of nymph/larvae development or numbers of unhatched eggs.
# (§3) Data analysis: Comparisons of different treatments were analyzed using one-way ANOVA followed by Ryan-Eibot-Gabriel-Welsch F test (SPSS 10.0 for Windows (George, D., and P. Mallery, SPSS for Windows step by step: A simple guide and reference, 4th edition, Allyn & Bacon, 2002)) for significance at α=0.05.
# H. halys eggs = assay type: in vivo
# Protocol: as §2, §3
# M. sexta eggs = assay type: in vivo
# Protocol: as §2, §3
# H. halys nymphs = assay: Toxicity of MB against H. halys nymphs (treated filter paper in glass vial); assay type: in vivo, Halyomorpha halys; settings: mortality after 24 hr
# Protocol: Toxicity of MB against H. halys nymphs: The bioassays were carried out in glass vials (20 mL). Filter paper was cut into round shaped pieces (2.4 cm diameter). 50 μL MB acetone solution with different concentrations was loaded onto the filter paper evenly, and the filter paper was dried for 1 min and then put into the bottom of the vial. A small piece of green bean was put on the filter paper in the vial as food source. Different stages of H. halys nymphs were introduced into the vial and capped with a cotton ball. For each stage, 30 nymphs were used for each amount of MB loading. For the nymphs of the first instar, 10 nymphs were put into 1 vial. For the nymphs of the second and third instar, 5 nymphs were put into 1 vial. For the nymphs of the fourth instar, 3 nymphs were put into 1 vial. For the nymphs of the fifth instar, 2 nymphs were put into 1 vial. The mortality was assessed after 24 hr.
# as §3
# Drosophila suzukii = assay: Impact of MB on D. suzukii control: pre-infested blueberries dipped in MB emulsion; assay type: in vivo; settings: 1% MB, berries pre-infested 4 days, dipped 2 h, 10 days incubation at room temperature
# Protocol: Assessment was conducted after 10 days incubation at room temperature.
# as §1, with “Deionized water (DI) containing 1% emulsifier (v/v), Tween 20 and Tween 80, at 1.1 ratio was used to make different VOCs water solutions and also used as blank control.” left out
# Impact of MB on D. suzukii control: To investigate the acute toxicity of MB against D. suzukii, 100 blueberries were placed in a plastic cage (30×30×30 cm) and infested by 100 mixed sex adult D. suzukii for 4 days. […] Present of adults were then subsequently assessed and development of larvae and pupae was further inspected by dissection of the berries. […]
smiles,measurement,setting,value
"COC(=O)c1ccccc1 [MB, methyl benzoate]",Human toxicity,[1],low to moderate human toxicity
same,Activity against adult D. suzukii,D. suzukii; 0.1% MB,no significant activity
same,Activity against adult D. suzukii,D. suzukii; 0.5% MB,Little activity
same,Toxicity / mortality against adult D. suzukii,D. suzukii; 1% solution,complete mortality; also recorded: potent activity
same,Toxicity / mortality against adult D. suzukii,"D. suzukii; 1% solution, listed as methyl benzoate",complete mortality
same,Adults emerged from pre-treated berries,D. suzukii; 1% solution,no adults emerged
same,Pupae developed from pre-treated berries compared with blank control,D. suzukii; 1% solution,significantly fewer pupae developed
same,Activity against adult D. suzukii,D. suzukii; 5% MB,potent activity
same,Adults emerged from pre-treated berries,D. suzukii; 5% MB,no adults emerged
same,Pupae developed from pre-treated berries compared with blank control,D. suzukii; 5% MB,significantly fewer pupae developed
same,Dose needed to reach 100% egg mortality,P. xylostella eggs; P. xylostella eggs,0.0064 mg/cm^2
same,Hatchability (%) (mean ± SE),"P. xylostella eggs; P. xylostella eggs, MB 0.025%, AI dose 0.0016 mg/cm^2, 10 days exposure",38 ± 5.5^c %
same,Hatchability (%) (mean ± SE),"P. xylostella eggs; P. xylostella eggs, MB 0.05%, AI dose 0.0032 mg/cm^2, 10 days exposure",13 ± 5.0^ab %
same,Hatchability (%) (mean ± SE),"P. xylostella eggs; P. xylostella eggs, MB 0.1%, AI dose 0.0064 mg/cm^2, 10 days exposure",0 ± 0.3^a %
same,Hatchability (%) (mean ± SE),"P. xylostella eggs; P. xylostella eggs, MB 0.25, AI dose 0.0159 mg/cm^2, 10 days exposure",1 ± 0.0^a %
same,Hatchability (%) (mean ± SE),"P. xylostella eggs; P. xylostella eggs, MB 0.5%, AI dose 0.0318 mg/cm^2, 10 days exposure",0 ± 0.0^a %
same,Hatchability (%) (mean ± SE),"P. xylostella eggs; P. xylostella eggs, MB 1%, AI dose 0.0637 mg/cm^2, 10 days exposure",0 ± 0.0^a %
same,Ovicidal activity in words,"P. xylostella eggs; P. xylostella eggs, MB at as low as 0.0032 mg/cm^2 dose",potent ovicidal activity
same,Dose for 100% egg mortality of P. xylostella: times less than H. halys eggs needed,P. xylostella eggs; P. xylostella vs H. halys eggs,10 times
same,Dose for 100% egg mortality of P. xylostella: times less than M. sexta eggs needed,P. xylostella eggs; P. xylostella vs M. sexta eggs,20 times
same,LC50 (95% CL),P. xylostella eggs; in vivo,0.001 mg/cm^2
same,LC95 (95% CL),P. xylostella eggs; in vivo,0.005 mg/cm^2
same,Dosage (active ingredient) needed to reach 100% egg mortality,H. halys eggs; H. halys eggs,0.0637 mg/cm^2
same,Hatchability (%) (mean ± SE),"H. halys eggs; H. halys eggs, MB 0.025%, AI dose 0.0016 mg/cm^2, 10 days exposure",67 ± 8.8^d %
same,Hatchability (%) (mean ± SE),"H. halys eggs; H. halys eggs, MB 0.05%, AI dose 0.0032 mg/cm^2, 10 days exposure",63 ± 17.6^cd %
same,Hatchability (%) (mean ± SE),"H. halys eggs; H. halys eggs, MB 0.1%, AI dose 0.0064 mg/cm^2, 10 days exposure",60 ± 10.0^cd %
same,Hatchability (%) (mean ± SE),"H. halys eggs; H. halys eggs, MB 0.25, AI dose 0.0159 mg/cm^2, 10 days exposure",43 ± 6.7^abcd %
same,Hatchability (%) (mean ± SE),"H. halys eggs; H. halys eggs, MB 1%, AI dose 0.0637 mg/cm^2, 10 days exposure",0 ± 0.0^a %
same,Hatchability (%) (mean ± SE),"H. halys eggs; H. halys eggs, MB 2%, AI dose 0.1273 mg/cm^2, 10 days exposure",0 ± 0.0^a %
same,Hatchability (%) (mean ± SE),"H. halys eggs; H. halys eggs, MB 4%, AI dose 0.2546 mg/cm^2, 10 days exposure",0 ± 0.0^a %
same,"Ovicidal potency compared with commercial pesticides, in words","H. halys eggs; H. halys eggs, MB at 0.0318 mg/cm^2 vs deltamethrin 0.0019, ζ-cypermethrin 0.0223, carbaryl 0.0080, β-cyfluthrin 0.1592, sulfur/pyrethrin 0.6525, organic essential oil product 0.3979 mg/cm^2",as potent as
same,LC95 (95% CL),"H. halys eggs; H. halys eggs, spray, 10 days",0.048 mg/cm^2
same,Hatchability (%) (mean ± SE),H. halys eggs; in vivo,17 ± 12.0^ab %
same,LC50 (95% CL),H. halys eggs; in vivo,0.020 mg/cm^2
same,"Times more toxic than organic commercial product (2-phenethyl propionate, clover oil, rosemary oil, thyme oil)",H. halys eggs; in vivo,12 times
same,Times more toxic than sulfur & pyrethrin mixture,H. halys eggs; in vivo,20 times
same,Times more toxic than the conventional pyrethroid (β-cyfluthrin),H. halys eggs; in vivo,5 times
same,"Ovicidal toxicity compared with commercial pesticides, in words","M. sexta eggs; M. sexta eggs, MB 0.0637 mg/cm^2 vs bifenthrin & ζ-cypermethrin 0.0239 and essential oil product 0.3979 mg/cm^2",significantly better
same,Hatchability (%) (mean ± SE),"M. sexta eggs; M. sexta eggs, MB 0.025%, AI dose 0.0016 mg/cm^2, 10 days exposure",67 ± 8.8^c %
same,Hatchability (%) (mean ± SE),"M. sexta eggs; M. sexta eggs, MB 0.05%, AI dose 0.0032 mg/cm^2, 10 days exposure",63 ± 8.8^c %
same,Hatchability (%) (mean ± SE),"M. sexta eggs; M. sexta eggs, MB 0.1%, AI dose 0.0064 mg/cm^2, 10 days exposure",50 ± 17.3^c %
same,Hatchability (%) (mean ± SE),"M. sexta eggs; M. sexta eggs, MB 0.25, AI dose 0.0159 mg/cm^2, 10 days exposure",40 ± 15.3^c %
same,Hatchability (%) (mean ± SE),"M. sexta eggs; M. sexta eggs, MB 0.5%, AI dose 0.0318 mg/cm^2, 10 days exposure",20 ± 10.0^abc %
same,Hatchability (%) (mean ± SE),"M. sexta eggs; M. sexta eggs, MB 1%, AI dose 0.0637 mg/cm^2, 10 days exposure",3 ± 3.35^ab %
same,Hatchability (%) (mean ± SE),"M. sexta eggs; M. sexta eggs, MB 2%, AI dose 0.1273 mg/cm^2, 10 days exposure",0 ± 0.0^a %
same,Hatchability (%) (mean ± SE),"M. sexta eggs; M. sexta eggs, MB 4%, AI dose 0.2546 mg/cm^2, 10 days exposure",0 ± 0.0^a %
same,LC50 (95% CL),"M. sexta eggs; M. sexta eggs, spray, 10 days",0.015 mg/cm^2
same,LC95 (95% CL),"M. sexta eggs; M. sexta eggs, spray, 10 days",0.060 mg/cm^2
same,Toxicity against M. sexta eggs in words,M. sexta eggs; MB at 0.0637 mg/cm^2 dose,potent toxic agent
same,LC50 (95% CL),H. halys nymphs; 1st instar nymphs,1.03 (0.93-1.10) μL/via1
same,LC50 (95% CL),H. halys nymphs; 2nd instar nymphs,1.01 (0.86-1.12) μL/via1
same,LC50 (95% CL),H. halys nymphs; 3rd instar nymphs,1.23 (1.12-1.33) μL/via1
same,LC50 (95% CL),H. halys nymphs; 4th instar nymphs,2.39 (2.19-2.60) μL/via1
same,LC50 (95% CL),H. halys nymphs; 5th instar nymphs,1.77 (1.60-1.93) μL/via1
same,Larvae/pupae development and adult emergence from pre-infested blueberries,Drosophila suzukii,no larvae and pupae developed or adult flies emerged
same,Mortality of D. suzukii in pre-infested blueberries,Drosophila suzukii,complete mortality
